Reference: patent US20240293579A1, “Composition Comprising Trim31 and Rhbdf2 for Treatment of NAFLD/NASH” (CHONGQING MEIPULAN TECHNOLOGY CO., LTD, priority 2021, published 2024)
Where a name gives a salt, the structure may show the parent alone.

test system: TRIM31 mRNA; assay: TRIM31 mRNA expression by RT-qPCR in PA/OA-induced L02 cells; assay type: cell-based, human; conditions: 100 μmol/L compound; PA/OA-induced L02 cells; RT-qPCR
Method: Palmitic acid/oleic acid (PA/OA) was used to induce the decrease of TRIM31 mRNA expression in human hepatocyte L02 cells. The cells were divided into control group and drug group. The drug group was treated with a concentration of 100 μmol/L compound, and the expression level of TRIM31 mRNA was detected by RT-qPCR. The expression level of TRIM31 mRNA in the drug group divided by that in the control group (Qdrug/Qctrl) was used to evaluate the ability of the compounds to promote TRIM31 expression. […]

Row | Compound | Qdrug/Qctrl (TRIM31 mRNA expression level, drug group divided by control group) [fold]
1 | CC(C)=CCc1c(-c2ccc(O)cc2O)oc2c(CC=C(C)C)c(O)cc(O)c2c1=O [Mulberrin] | 3.74
2 | O=c1cc(-c2ccc(O)c(O)c2)oc2cc(O[C@@H]3O[C@H](CO)[C@@H](O)[C@H](O)[C@H]3O)cc(O)c12 [luteolin 7-O-β-D-glucoside] | 2.83
3 | COC(=O)C1=CO[C@@H](C)[C@H]2Cn3ccc4c5ccccc5nc-4c3C[C@H]12 [Serpentine] | 1.33
4 | CC1(C)[C@@H](O[C@H]2O[C@H](C(=O)O)[C@@H](O)[C@H](O)[C@H]2O[C@@H]2O[C@H](C(=O)O)[C@@H](O)[C@H](O)[C@H]2O)CC[C@]2(C)[C@H]3C(=O)C=C4[C@@H]5C[C@@](C)(C(=O)O)CC[C@]5(C)CC[C@@]4(C)[C@]3(C)CC[C@@H]12 [Glycyrrhizinic acid] | 1.86
5 | Proanthocyanidin | 3.12
6 | Breviscapine | 3.29
7 | Catechin | 3.21
8 | Orixine | 1.69

same assay, conditions: Homo sapiens, L02, read-out: Qdrug/Qctrl (TRIM31 mRNA expression level, drug group divided by control group)

Row | Compound | fold induction at 100 µM
9 | COc1cc(/C=C/C(=O)CC(=O)/C=C/c2ccc(O)c(OC)c2)ccc1O [Curcumin] | 2.83
10 | CC(C)(S)[C@@H](N)C(=O)O [Penicillamine, reference compound] | 1.72
11 | Oc1ccc(C=Cc2cc(O)cc(O)c2)cc1 [Resveratrol] | 3.66
12 | CN1Cc2c(ccc3c2OCO3)[C@@H]2[C@H]1c1cc3c(cc1C[C@@H]2O)OCO3 [Chelidonine] | 1.53
13 | COc1cc2c(c(OC)c1OC)-c1ccc(OC)c(=O)cc1[C@@H](NC(C)=O)CC2 [Colchicine, reference compound] | 1.32
14 | COc1cc(-c2cc(=O)c3c(O)cc(O)cc3o2)cc(OC)c1O [Tricin] | 2.9
15 | O=C(/C=C/c1ccc(O)c(O)c1)O[C@@H]1C[C@](O)(C(=O)O)C[C@@H](O)[C@H]1O [Chlorogenic acid] | 2.42
16 | COc1cc(/C=C/C(=O)O)ccc1O [Ferulic acid] | 2.51
17 | CN(C)C(=N)N=C(N)N [Metformin, reference compound] | 2.45
18 | O=C(/C=C/C=C/c1ccc2c(c1)OCO2)N1CCCCC1 [Piperine] | 1.8
19 | COc1cc(C(=O)OCCCCNC(=N)N)cc(OC)c1O [Leonurine] | 1.51
20 | O=c1c(O)c(-c2cc(O)c(O)c(O)c2)oc2cc(O)cc(O)c12 [Myricetin] | 3.25

same assay, conditions: Homo sapiens; 100 μmol/L compound; PA/OA-induced L02 cells; RT-qPCR; read-out: Qdrug/Qctrl (TRIM31 mRNA expression level, drug group divided by control group)

Row | Compound | fold induction at 100 µM
21 | C[C@H](CCC(=O)O)[C@H]1CC[C@H]2[C@@H]3[C@H](O)C[C@@H]4C[C@H](O)CC[C@]4(C)[C@H]3CC[C@]12C [Chenodeoxycholic acid, reference compound] | 2.54
22 | CC1(C)[C@@H](O[C@H]2O[C@H](C(=O)O)[C@@H](O)[C@H](O)[C@H]2O[C@@H]2O[C@H](C(=O)O)[C@@H](O)[C@H](O)[C@H]2O)CC[C@]2(C)[C@H]3C(=O)C=C4[C@@H]5C[C@@](C)(C(=O)O)CC[C@]5(C)CC[C@@]4(C)[C@]3(C)CC[C@@H]12 [Glycyrrhizic Acid Monoammonium Salt] | 1.72
23 | COc1ccc2cc1Oc1ccc(cc1)C[C@H]1c3cc(c(OC)cc3CCN1C)Oc1c(OC)c(OC)cc3c1[C@H](C2)N(C)CC3 [Tetrandrine] | 1.56
24 | CNC(=O)c1cc(Oc2ccc(NC(=O)Nc3ccc(Cl)c(C(F)(F)F)c3)cc2)ccn1 [Sorafenib, reference compound] | 2.86
25 | O=c1cc(-c2ccc(O)cc2)oc2cc(O[C@@H]3O[C@H](CO)[C@@H](O)[C@H](O)[C@H]3O[C@@H]3OC[C@](O)(CO)[C@H]3O)cc(O)c12 [Apiin] | 3.22
26 | CC[C@@]1(O)C(=O)OCc2c1cc1n(c2=O)Cc2cc3ccccc3nc2-1 [Camptothecin] | 2.13
27 | COc1c(O)cc(O)c2c(=O)cc(-c3ccccc3)oc12 [Wogonin] | 3.05
